Experimental data published in patent US11951095B2, “Non-hormonal compositions and methods for male contraception” (PHARMAJOR INTERNATIONAL, priority 2018, dated 2024).
Where a name gives a salt, the structure may show the parent alone.

What was measured:
male subjects [1] = assay: Example 3: single administration contraceptive effect, semen analysis (IR formulation); format: in vivo, human
Method: A study is undertaken to evaluate the effectiveness of the compositions of the present invention in the treatment of male subjects. The objective of the study is to determine whether oral intake of (R)-Silodosin formulation results in a contraceptive effect.
A total of 7 subjects, aged 18 to 40 years were enrolled in an open-label study. An initial analysis of each subject's semen, collected via masturbation after 3 days of abstinence, is performed by microscopic examination of the fresh semen. Each subject receives one single dose of 12 mg immediate release (R)-Silodosin.
A semen analysis of each subject is conducted 24 hours after the dosing.

[2] = cited from earlier work
[3] = cited from earlier work; remark: listed apart in the source
[4] = 4 mg twice a day; cited from earlier work
Healthy Volunteers [5] = conditions: 4 mg twice a day for 3 days; cited from earlier work
male subjects [6] = conditions: in vivo; cited from earlier work
healthy volunteer men = conditions: in vivo; cited from earlier work
sexually active men = conditions: in vivo; cited from earlier work
[7] = in vivo; cited from earlier work
participants = conditions: cited from earlier work
prostatic smooth muscle = conditions: cited from earlier work
male = conditions: cited from earlier work
Healthy Volunteers [8] = conditions: cited from earlier work
[9] = single dose 12 mg, immediate release (IR) formulation, 24 h, N = 7
[10] = traditional formulations, with food

C[C@H](Cc1cc2c(c(C(N)=O)c1)N(CCCO)CC2)NCCOc1ccccc1OCC(F)(F)F [(R)-Silodosin, (−)-(R)-1-(3-hydroxypropyl)-5-[2-[[2-[2-(2,2,2-trifluoroethoxy)phenoxy]ethyl]amino]propyl]indoline-7-carboxamide]
time for which contraception is maintained (male subjects [1]; after a 12-mg single dose): up to 24 h | Aspermia (subjects with effect) (male subjects [1]; [9]): 6/7 | Azoospermia (subjects with effect) (male subjects [1]; [9]): 1/7 | Total, aspermia or azoospermia (subjects with effect) (male subjects [1]; [9]): 7/7 | solubility in acetic acid [2]: very soluble | solubility in alcohol [2]: freely soluble | solubility in water [2]: very slightly soluble | median Tmax ([3]; CDER NDA 22-206): about 2 hours | food effect on Cmax [3, 10]: lower | food effect on Tmax [3, 10]: delayed | ejaculatory disorder [4]: high incidence | seminal emission (Healthy Volunteers [5]): complete lack of seminal emission | rate of discomfort upon ejaculation (male subjects [6]): 100% | quality of orgasm (healthy volunteer men): decrease | erectile function (sexually active men): decrease | sexual desire [7]: decrease | spermatozoa in the semen and post-analysis urine (participants; 8 mg for 7 days, 2 hours after intake): no spermatozoa | semen analysis after switch to placebo (participants; Day 8 to 15 placebo, from day 2 of placebo): normal semen analysis | unintended pregnancy (participants; on demand 8 mg prior to intercourse, 6 months): no unintended pregnancy | uroselectivity compared with other alpha-1 blockers, such as tamsulosin and naftopidil (prostatic smooth muscle): greater

CC(COc1ccccc1)N(CCCl)Cc1ccccc1 (centres unmarked) [phenoxybenzamine]
effect following male orgasm (male; doses up to 20 mg/day): aspermia | reversal of ejaculation block with cessation of treatment (male; in vivo): fully reversed

CCOc1ccccc1OCCN[C@H](C)Cc1ccc(OC)c(S(N)(=O)=O)c1 [tamsulosin, (−)-(R)-5-[2-[[2-(o-Ethoxyphenoxy)ethyl]amino]propyl]-2-methoxybenzenesulfonamide, monohydrochloride]
ejaculation (Healthy Volunteers [8]; 0.8-mg dose): An ejaculation was reached | functional sperm count (Healthy Volunteers [8]; in vivo): significantly reduced | side effects including discomfort on ejaculation (Healthy Volunteers [8]; in vivo): reported by some subjects | volume of semen (Healthy Volunteers [8]; single dose of 0.4 or 0.8 mg, 4 to 6 hours after dosing): dose dependent decrease
